Key:
PTEC-TERT1 cells = test: EGF assay, supernatant of PTEC-TERT1 cells
[1] = system: Primary human hepatocytes; test: EGF assay, culture media of primary human hepatocytes; type: cell-based; settings: 10 ng/ml EGF in medium;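 note: values as percent of saline vehicle control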
Procedure: Cryopreserved human hepatocytes were suspended in William's Medium E (WME) without phenol red (Sigma W-1878) supplemented with 10% fetal calf serum, penicillin (100 U/ml), streptomycin (0.1 mg/ml) at a density of approx. 1×10^6 cells/ml and seeded into collagen-coated 96-well plates (Becton Dickinson AG, Allschwil, Switzerland) at a density of 0.4×10^5 cells/well. Cells were pre-cultured for 3 to 4 h allowing for attachment to cell culture plates before start of treatment with oligonucleotides.
Before oligonucleotide treatment the seeding medium was replaced by 90 μl of serum free WME.
The total volume of each well was 100 μl. PBS served as vehicle control.
Human primary hepatocytes were cultivated as described in the “Materials and methods” section with addition of 10 ng/ml of EGF to the medium. At confluence the cells were treated with oligonucleotide as described in the “Materials and methods” section, in concentrations of 10 or 100 μM.
The medium was obtained at day 3, and the EGF level was measured according to the assay described in the “Materials and methods” section.

[2] = PTEC-TERT1, Day 6, 10 μM (Table 4)
[3] = PTEC-TERT1, Day 6, 30 μM (Table 4)
[4] = PTEC-TERT1, Day 6, 100 μM (Table 4)

Substance	EGF (PTEC-TERT1 cells; [2]) [% saline]	EGF (PTEC-TERT1 cells; [3]) [% saline]	EGF (PTEC-TERT1 cells; [4]) [% saline]	EGF ([1]; day 3, 10 μM) [% saline]	EGF ([1]; day 3, 100 μM) [% saline]	other results
TGCtcaacatcAAG (TGCTCAACATCAAG; chemistry not given here) [Compound 11-1]	38	127	371	184	458	–
GTCagaaacaaccACC (GTCAGAAACAACCACC; chemistry not given here) [Compound 14-1]	–	–	–	139	220	–
CAAaggaaacacaCAT (CAAAGGAAACACACAT; chemistry not given here) [Compound 6-1]	78	90	118	–	–	–
TAAggcaatcaagGTA (TAAGGCAATCAAGGTA; chemistry not given here) [Compound 5-1]	–	–	–	–	–	EGF (PTEC-TERT1 cells; PTEC-TERT1, Day 3, 11 μM (Table 3)): 174 % saline; EGF (PTEC-TERT1 cells; PTEC-TERT1, Day 3, 33 μM (Table 3)): 222 % saline; EGF (PTEC-TERT1 cells; PTEC-TERT1, Day 3, 100 μM (Table 3)): 182 % saline; EGF (PTEC-TERT1 cells; PTEC-TERT1, Day 7, 11 μM (Table 3)): 158 % saline; EGF (PTEC-TERT1 cells; PTEC-TERT1, Day 7, 33 μM (Table 3)): 249 % saline; EGF (PTEC-TERT1 cells; PTEC-TERT1, Day 7, 100 μM (Table 3)): 754 % saline; EGF (PTEC-TERT1 cells; PTEC-TERT1, Day 10, 11 μM (Table 3)): 54 % saline; EGF (PTEC-TERT1 cells; PTEC-TERT1, Day 10, 33 μM (Table 3)): 210 % saline; EGF (PTEC-TERT1 cells; PTEC-TERT1, Day 10, 100 μM (Table 3)): 720 % saline
TTAcacttgacCCA (TTACACTTGACCCA; chemistry not given here) [Compound 12-1]	19	27	71	–	–	–

Source: US11105794B2, “In vitro nephrotoxicity screening assay” (Hoffmann-La Roche Inc., priority 2016, dated 2021)
